Columns and labels:
[1] = system: total ATXN3 protein; experiment: ATXN3 total protein assay (MSD); format: cell-based; details: Homo sapiens, SK-N-MC cells, 48 h incubation
Procedure: Human neuroblastoma SK-N-MC cells were seeded at 10,000 cells/well in 384 well plates one day prior to compound treatment. The concentrations of compounds were tested at appropriate doses ranging from 30 μM to 0.6 nM. After incubation for 48 hours, the cells were lysed with 25 μL of lysis buffer containing protease inhibitors, and total ATXN3 protein levels were assessed by Mesoscale Discovery (MSD) assay developed with one pair of anti-ATXN3 antibodies. The capture and detect antibodies were raised in mouse and rabbit respectively. Anti-rabbit MSD-ST antibody was used for secondary antibody.
ATXN3 recombinant protein was used for standards. The readouts were captured with 35 μL of MSD read buffer and multi-array 384-well high binding plates.

[2] = system: ATXN3 transcripts containing exon 4 (E4E5); experiment: ATXN3 quantitative splicing assay (qPCR, E4E5 primers/probe); format: cell-based; details: Homo sapiens; SK-N-MC cells, 24 h treatment, qPCR of exon 4 containing transcripts
Procedure: Human neuroblastoma SK-N-MC cells were plated in 384-well plates at 20,000 cells/well. Twenty-four hours after plating, cells were treated with compounds for 24 h at appropriate concentrations ranging from 30 μM to 0.6 nM (0.300 DMSO). Treated cells were lysed in 15 μL of lysis buffer, and cDNA was synthesized using the Fast Advanced Cells-to-Ct kit. Two μL of each cDNA was used in qPCR reactions to confirm the exon 4 skipped transcripts of ATXN3. A second set of primers/probe E4E5 was used to detect the transcripts containing exon 4. The third set of primers/probe E8E9 was used to detect total gene level of ATXN3. The qPCR reactions were prepared in 384-well plates in 10 μL volume, using TaqMan™ Fast Advanced Master Mix with primers and probes shown in the table below. Reactions were run in a Quant Studio 6 qPCR instrument with default settings.
The primers and probes are listed below in Table 5.

| SMILES | IC50 [1] | IC50 [2] |
| --- | --- | --- |
| CC#Cc1c(C[C@H](C)N)sc2c(NCc3cccs3)snc12 [Compound 1, 7-[(S)-2-aminopropyl]-8-(1-propynyl)-4-thenylamino-3,6-dithia-2-azabicyclo[3.3.0]octa-1,4,7-triene] | 101 to 500 nM | 101 to 500 nM |
| C[C@H](N)Cc1sc2c(NCc3cccs3)snc2c1C#Cc1ccccc1 [Compound 2, 7-[(S)-2-aminopropyl]-8-(2-phenylethynyl)-4-thenylamino-3,6-dithia-2-azabicyclo[3.3.0]octa-1,4,7-triene] | 501 to 5000 nM | 5000 to 10000 nM |
| CC(C)C#Cc1c(C[C@H](C)N)sc2c(NCc3cccs3)snc12 [Compound 4, 7-[(S)-2-aminopropyl]-8-(3-methyl-1-butynyl)-4-thenylamino-3,6-dithia-2-azabicyclo[3.3.0]octa-1,4,7-triene] | 5000 to 10000 nM | 5000 to 10000 nM |
| CC(C)C#Cc1c(C[C@H](C)N)sc2c(NCc3ccco3)snc12 [Compound 5, 7-[(S)-2-aminopropyl]-4-(furfurylamino)-8-(3-methyl-1-butynyl)-3,6-dithia-2-azabicyclo[3.3.0]octa-1,4,7-triene] | 501 to 5000 nM | 501 to 5000 nM |
| C[C@H](N)Cc1sc2c(NCc3cccs3)snc2c1C#CC1CC1 [Compound 6, 7-[(S)-2-aminopropyl]-8-(2-cyclopropylethynyl)-4-thenylamino-3,6-dithia-2-azabicyclo[3.3.0]octa-1,4,7-triene] | 501 to 5000 nM | 101 to 500 nM |
| C[C@H](N)Cc1sc2c(NCc3ccco3)snc2c1C#CC1CC1 [Compound 7, 7-[(S)-2-aminopropyl]-8-(2-cyclopropylethynyl)-4-(furfurylamino)-3,6-dithia-2-azabicyclo[3.3.0]octa-1,4,7-triene] | 501 to 5000 nM | 101 to 500 nM |
| CC#Cc1c(C[C@@H](N)CO)sc2c(NCc3cccs3)snc12 [Compound 8, (R)-2-amino-3-{8-(1-propynyl)-4-thenylamino-3,6-dithia-2-azabicyclo[3.3.0]octa-1,4,7-trien-7-yl}-1-propanol] | 101 to 500 nM | 0.01 to 100 nM |
| CC#Cc1c(C[C@@H](N)CO)sc2c(NCc3ccco3)snc12 [Compound 9, (R)-2-amino-3-{4-(furfurylamino)-8-(1-propynyl)-3,6-dithia-2-azabicyclo[3.3.0]octa-1,4,7-trien-7-yl}-1-propanol] | 0.01 to 100 nM | 0.01 to 100 nM |
| CC#Cc1c(C[C@H](C)N)sc2c(NCc3ccco3)snc12 [Compound 10, 7-[(S)-2-aminopropyl]-4-(furfurylamino)-8-(1-propynyl)-3,6-dithia-2-azabicyclo[3.3.0]octa-1,4,7-triene] | 101 to 500 nM | 101 to 500 nM |
| COCC#Cc1c(C[C@H](C)N)sc2c(NCc3ccco3)snc12 [Compound 11, 7-[(S)-2-aminopropyl]-4-(furfurylamino)-8-(3-methoxy-1-propynyl)-3,6-dithia-2-azabicyclo[3.3.0]octa-1,4,7-triene] | 501 to 5000 nM | 501 to 5000 nM |
| COCC#Cc1c(C[C@H](C)N)sc2c(NCc3cccs3)snc12 [Compound 15, 7-[(S)-2-aminopropyl]-8-(3-methoxy-1-propynyl)-4-thenylamino-3,6-dithia-2-azabicyclo[3.3.0]octa-1,4,7-triene] | 10000 to 40000 nM | 10000 to 40000 nM |
| CCC#Cc1c(C[C@H](C)N)sc2c(NCc3cccs3)snc12 [Compound 16, 7-[(S)-2-aminopropyl]-8-(1-butynyl)-4-thenylamino-3,6-dithia-2-azabicyclo[3.3.0]octa-1,4,7-triene] | 501 to 5000 nM | 501 to 5000 nM |
| C[C@H](N)Cc1sc2c(NCc3cccs3)snc2c1C#CCF [Compound 17, 7-[(S)-2-aminopropyl]-8-(3-fluoro-1-propynyl)-4-thenylamino-3,6-dithia-2-azabicyclo[3.3.0]octa-1,4,7-triene] | 501 to 5000 nM | 101 to 500 nM |
| CCC#Cc1c(C[C@@H](N)[C@H](C)F)sc2c(NCc3cccs3)snc12 [Compound 20, 7-[(2R,3S)-2-amino-3-fluorobutyl]-8-(1-butynyl)-4-thenylamino-3,6-dithia-2-azabicyclo[3.3.0]octa-1,4,7-triene] | 101 to 500 nM | 101 to 500 nM |
| CC#Cc1c(C[C@@H](N)[C@H](C)F)sc2c(NCc3ccccc3)snc12 [Compound 21, 7-[(2R,3S)-2-amino-3-fluorobutyl]-4-benzylamino-8-(1-propynyl)-3,6-dithia-2-azabicyclo[3.3.0]octa-1,4,7-triene] | 501 to 5000 nM | 501 to 5000 nM |
| CC#Cc1c(C[C@@H](N)[C@H](C)F)sc2c(NCc3ccco3)snc12 [Compound 22, 7-[(2R,3S)-2-amino-3-fluorobutyl]-4-(furfurylamino)-8-(1-propynyl)-3,6-dithia-2-azabicyclo[3.3.0]octa-1,4,7-triene] | 0.01 to 100 nM | 0.01 to 100 nM |
| CC#Cc1c(C[C@@H](N)[C@H](C)F)sc2c(NCc3cccs3)snc12 [Compound 23, 7-[(2R,3S)-2-amino-3-fluorobutyl]-8-(1-propynyl)-4-thenylamino-3,6-dithia-2-azabicyclo[3.3.0]octa-1,4,7-triene] | 101 to 500 nM | 101 to 500 nM |
| CC#Cc1c(C[C@@H](N)COC)sc2c(NCc3ccccc3)snc12 [Compound 24, 7-[(R)-2-amino-3-methoxypropyl]-4-benzylamino-8-(1-propynyl)-3,6-dithia-2-azabicyclo[3.3.0]octa-1,4,7-triene] | 5000 to 10000 nM | 10000 to 40000 nM |
| CC#Cc1c(C[C@@H](N)COC)sc2c(NCc3ccco3)snc12 [Compound 25, 7-[(R)-2-amino-3-methoxypropyl]-4-(furfurylamino)-8-(1-propynyl)-3,6-dithia-2-azabicyclo[3.3.0]octa-1,4,7-triene] | 501 to 5000 nM | 101 to 500 nM |
| CC#Cc1c(C[C@@H](N)COC)sc2c(NCc3cccs3)snc12 [Compound 26, 7-[(R)-2-amino-3-methoxypropyl]-8-(1-propynyl)-4-thenylamino-3,6-dithia-2-azabicyclo[3.3.0]octa-1,4,7-triene] | 501 to 5000 nM | 501 to 5000 nM |
| C[C@H](N)Cc1sc2c(NCc3cccs3)snc2c1C#CCO [Compound 27, 3-{7-[(S)-2-aminopropyl]-4-thenylamino-3,6-dithia-2-azabicyclo[3.3.0]octa-1,4,7-trien-8-yl}-2-propyn-1-ol] | 501 to 5000 nM | 501 to 5000 nM |
| CC#Cc1c(C(F)(F)[C@H](C)N)sc2c(NCc3cccs3)snc12 [Compound 28, 7-[(S)-2-amino-1,1-difluoropropyl]-8-(1-propynyl)-4-thenylamino-3,6-dithia-2-azabicyclo[3.3.0]octa-1,4,7-triene] | 501 to 5000 nM | 501 to 5000 nM |
| CC#Cc1c(C[C@@H](N)CC2CC2)sc2c(NCc3cccs3)snc12 [Compound 29, 7-[(S)-2-amino-3-cyclopropylpropyl]-8-(1-propynyl)-4-thenylamino-3,6-dithia-2-azabicyclo[3.3.0]octa-1,4,7-triene] | 501 to 5000 nM | 501 to 5000 nM |
| CC#Cc1c(C[C@@H](N)CC2CC2)sc2c(NCc3ccco3)snc12 [Compound 30, 7-[(S)-2-amino-3-cyclopropylpropyl]-4-(furfurylamino)-8-(1-propynyl)-3,6-dithia-2-azabicyclo[3.3.0]octa-1,4,7-triene] | 101 to 500 nM | 101 to 500 nM |
| CC#Cc1c(C[C@@H](N)C(F)F)sc2c(NCc3ccco3)snc12 [Compound 36, 7-[(R)-2-amino-3,3-difluoropropyl]-4-(furfurylamino)-8-(1-propynyl)-3,6-dithia-2-azabicyclo[3.3.0]octa-1,4,7-triene] | 501 to 5000 nM | 501 to 5000 nM |
| CC#Cc1c(C[C@@H](N)C(F)F)sc2c(NCc3cccs3)snc12 [Compound 37, 7-[(R)-2-amino-3,3-difluoropropyl]-8-(1-propynyl)-4-thenylamino-3,6-dithia-2-azabicyclo[3.3.0]octa-1,4,7-triene] | 5000 to 10000 nM | 501 to 5000 nM |
